Tests used:
[1] = log P by HPLC (OECD Guideline 117), method [a] acidic range; assay type: physicochemical; settings: for logP[a]: HPLC, method [a] acidic range; for chromatographic logP: reversed-phase C18 HPLC column, acidic range
Protocol: (§1) The log P values were determined analogously to OECD Guideline 117 (EC Directive 92/69/EEC) by HPLC (high-performance liquid chromatography) using reversed-phase columns (C 18), by the following methods:
[a] The LC-MS determination in the acidic range is effected at pH 2.7 with 0.1% aqueous formic acid and acetonitrile (contains 0.1% formic acid) as eluents; linear gradient from 10% acetonitrile to 95% acetonitrile.

Tetranychus urticae = Tetranychus urticae spray test, OP-resistant (TETRUR); assay type: in vivo; settings: after 6 days; for pest or weed control at 500 g/ha: Tetranychus urticae, 144 h, read-out: efficacy
Procedure, shortened: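 Mortality as % efficacy (0% = no mites killed) read 6 days after spraying. Formulation: active ingredient in acetone/dimethylformamide plus emulsifier, diluted with emulsifier-containing water, applied to Phaseolus vulgaris leaf discs carrying every life stage of OP-resistant spider mites.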

[2] = log P by HPLC (OECD Guideline 117), method [b] neutral range; assay type: physicochemical; settings: HPLC; for logP[b]: method [b] neutral range; for chromatographic logP: reversed-phase C18 HPLC column, neutral range, pH 7.8
Protocol: as §1
[b] The LC-MS determination in the neutral range is effected at pH 7.8 with 0.001 molar aqueous ammonium hydrogencarbonate solution and acetonitrile as eluents; linear gradient from 10% acetonitrile to 95% acetonitrile.

[3] = pH 2.7, HPLC method [a], read-out: logP[a]
[4] = pH 2.7, HPLC, pH 2.7, read-out: log P[a]

Row | Structure (SMILES) | logP[a] [1] | efficacy (Tetranychus urticae; application rate of 500 g/ha) | logP[b] [2] | chromatographic logP [1, 3] | chromatographic logP [1, 4] | pest or weed control at 500 g/ha (Tetranychus urticae; application rate of 500 g/ha) | chromatographic logP [2] | efficacy (Tetranychus urticae; application rate of 20 g/ha)
1 | CCCSc1nn(-c2cc(SCC(F)(F)F)c(C)cc2F)c(=O)n1C1CC1 [Example 265] | 4.41 | 100% | 4.32 |  |  |  |  | 
2 | CCCSc1nn(-c2cc([S+]([O-])CC(F)(F)F)c(C)cc2F)c(=O)n1C1CC1 (centres unmarked) [Example 266] | 3.24 | 100% | 3.17 |  |  |  |  | 
3 | Cc1cc(F)c(-n2nc(SC(C)C)n(C3CC3)c2=O)cc1[S+]([O-])CC(F)(F)F (centres unmarked) [Example 267] | 3.19 | 100% | 3.12 |  |  |  |  | 
4 | Cc1cc(F)c(-n2nc(SC(C)C)n(C3CC3)c2=O)cc1SCC(F)(F)F [Example 268] | 4.37 | 100% | 4.28 |  |  |  |  | 
5 | CCn1c(SC)nn(-c2cc(SCC(F)(F)F)c(C)cc2F)c1=O [Example 269] | 3.53 | 100% | 3.44 |  |  |  |  | 
6 | C=CCn1c(SC)nn(-c2cc(SCC(F)(F)F)c(C)cc2F)c1=O [Example 271] | 3.61 | 100% | 3.58 |  |  |  |  | 
7 | CCSc1nn(-c2cc(SCC(F)(F)F)c(C)cc2F)c(=O)n1C [Example 273, 5-(Ethylsulphanyl)-2-{2-fluoro-4-methyl-5-[(2,2,2-trifluoroethyl)sulphanyl]phenyl}-4-methyl-2,4-dihydro-3H-1,2,4-triazol-3-one] |  |  |  | 3.51 | 3.51 | 100% | 3.44 | 
8 | CCSc1nn(-c2cc([S+]([O-])CC(F)(F)F)c(C)cc2F)c(=O)n1C (centres unmarked) [Example 274, 5-(Ethylsulphanyl)-2-{2-fluoro-4-methyl-5-[(2,2,2-trifluoroethyl)sulphinyl]phenyl}-4-methyl-2,4-dihydro-3H-1,2,4-triazol-3-one] |  |  |  | 2.42 | 2.42 | 100% | 2.36 | 
9 | Cc1cc(F)c(-n2nc(SC(C)C)n(C)c2=O)cc1[S+]([O-])CC(F)(F)F (centres unmarked) [Example 275] | 2.73 | 100% | 2.68 |  |  |  |  | 
10 | Cc1cc(F)c(-n2nc(SC(C)C)n(C)c2=O)cc1SCC(F)(F)F [Example 276] | 3.86 | 100% | 3.80 |  |  |  |  | 
11 | CCCSc1nn(-c2cc(SCC(F)(F)F)c(C)cc2F)c(=O)n1C [Example 277] | 3.90 | 100% | 3.86 |  |  |  |  | 
12 | CCCSc1nn(-c2cc([S+]([O-])CC(F)(F)F)c(C)cc2F)c(=O)n1C (centres unmarked) [Example 278] | 2.80 | 100% | 2.74 |  |  |  |  | 
13 | Cc1cc(F)c(-n2nc(SCC3CC3)n(C)c2=O)cc1SCC(F)(F)F [Example 279] | 3.91 | 100% | 3.83 |  |  |  |  | 
14 | Cc1cc(F)c(-n2nc(SCC(F)(F)F)n(C)c2=O)cc1SCC(F)(F)F [Example 281] | 3.53 | 100% | 3.45 |  |  |  |  | 
15 | Cc1cc(F)c(-n2nc(SC(F)(F)F)n(C)c2=O)cc1SCC(F)(F)F [Example 283] | 3.71 | 100% | 3.64 |  |  |  |  | 
16 | Cc1cc(F)c(-n2nc(SCc3ccccc3)n(C)c2=O)cc1SCC(F)(F)F [Example 286] | 4.12 | 100% | 4.03 |  |  |  |  | 
17 | CCCSc1nn(-c2cc(SCC(F)(F)F)c(C)cc2F)c(=O)n1CC [Example 288] | 3.18 | 100% | 3.13 |  |  |  |  | 
18 | C=CCSc1nn(-c2cc(SCC(F)(F)F)c(C)cc2F)c(=O)n1C [Example 290] | 3.62 | 100% | 3.56 |  |  |  |  | 

Row | Structure (SMILES) | logP[a] [1] | efficacy (Tetranychus urticae; application rate of 500 g/ha) | logP[b] [2] | chromatographic logP [1, 3] | chromatographic logP [1, 4] | pest or weed control at 500 g/ha (Tetranychus urticae; application rate of 500 g/ha) | chromatographic logP [2] | efficacy (Tetranychus urticae; application rate of 20 g/ha)
19 | CCSc1nn(-c2cc(SCC(F)(F)F)c(C)cc2F)c(=O)n1CC [Example 292] | 3.91 | 100% | 3.86 |  |  |  |  | 
20 | Cc1cc(F)c(-n2nc(Br)n(C3CC3)c2=O)cc1SCC(F)(F)F [Example 294] | 3.48 | 100% | 3.38 |  |  |  |  | 
21 | Cc1ccc(-n2nnn(C)c2=O)cc1SCC(F)(F)F [Example 296] | 3.07 | 90% | 3.04 |  |  |  |  | 
22 | Cc1cc(C)c(-n2nnn(C(C)C)c2=O)cc1SCC(F)(F)F [Example 298] | 3.81 | 100% | 3.78 |  |  |  |  | 
23 | Cc1cc(F)c(-n2nnn(-c3ccc(Cl)cc3)c2=O)cc1SCC(F)(F)F [Example 306, 1-(4-Chlorophenyl)-4-{2-fluoro-4-methyl-5-[(2,2,2-trifluoroethyl)sulphanyl]phenyl}-1,4-dihydro-5H-tetrazol-5-one] |  |  |  | 4.75 | 4.75 | 100% | 4.59 | 
24 | Cc1cc(F)c(-n2nnn(-c3ccc(Cl)cc3)c2=O)cc1[S+]([O-])CC(F)(F)F (centres unmarked) [Example 307, 1-(4-Chlorophenyl)-4-{2-fluoro-4-methyl-5-[(2,2,2-trifluoroethyl)sulphinyl]phenyl}-1,4-dihydro-5H-tetrazol-5-one] |  |  |  | 3.53 | 3.53 | 100% | 3.49 | 
25 | COC1=CC(=O)N(c2cc(SCC(F)(F)F)c(C)cc2F)C1 [Example 310, 1-{2-Fluoro-4-methyl-5-[(2,2,2-trifluoroethyl)sulphanyl]phenyl}-4-methoxy-1,5-dihydro-2H-pyrrol-2-one] |  |  |  | 2.87 | 2.87 | 100% | 2.81 | 
26 | COC1=CC(=O)N(c2cc(SCC(F)(F)F)c(C)cc2C)C1 [Example 312] | 2.88 | 90% | 2.81 |  |  |  |  | 
27 | COC1=CC(=O)N(c2ccc(C)c(SCC(F)(F)F)c2)C1 [Example 316] | 2.98 | 90% | 2.95 |  |  |  |  | 
28 | COC1=CC(=O)N(c2cc([S+]([O-])CC(F)(F)F)c(C)cc2Cl)C1 (centres unmarked) [Example 318] | 1.99 | 90% | 1.94 |  |  |  |  | 
29 | COC1=CC(=O)N(c2cc([S+]([O-])CC(F)(F)F)c(Cl)cc2F)C1 (centres unmarked) [Example 324] | 2.13 | 100% | 2.11 |  |  |  |  | 
30 | Cc1cc(F)c(N2CC(OC(C)C)=CC2=O)cc1[S+]([O-])CC(F)(F)F (centres unmarked) [Example 325] | 2.46 | 100% | 2.43 |  |  |  |  | 
31 | CCCCOC1=CC(=O)N(c2cc([S+]([O-])CC(F)(F)F)c(C)cc2F)C1 (centres unmarked) [Example 326] | 2.91 | 90% | 2.88 |  |  |  |  | 
32 | COC1=CC(=O)N(c2cc(SCC(F)(F)F)c(Cl)cc2F)C1 [Example 327] | 2.97 | 90% | 2.92 |  |  |  |  | 
33 | CCOC1=CC(=O)N(c2cc([S+]([O-])CC(F)(F)F)c(C)cc2F)C1 (centres unmarked) [Example 334] | 2.19 |  | 2.14 |  |  |  |  | 90%
34 | COCCOC1=CC(=O)N(c2cc([S+]([O-])CC(F)(F)F)c(C)cc2F)C1 (centres unmarked) [Example 335] | 1.92 | 90% | 1.86 |  |  |  |  | 
35 | Cc1cc(F)c(N2C(=O)C=C(Br)C2=O)cc1SCC(F)(F)F [Example 337] | 3.91 | 90% | 3.50 |  |  |  |  | 
36 | Cc1cc(F)c(N2C(=O)C(Cl)=C(Cl)C2=O)cc1SCC(F)(F)F [Example 338] | 3.99 | 90% | 4.00 |  |  |  |  | 
